# From ChEMBL document CHEMBL1821601, “Impact of passive permeability and gut efflux transport on the oral bioavailability of novel series of piperidine-based renin inhibitors in rodents” (Bioorg Med Chem Lett, 2011)
# How the values were obtained:
# [1] = (§1) Oral bioavailability in rat at 3 mg/kg; assay type: ADME, organism-based; conditions: in vivo
# [2] = Plasma clearance in rat at 5 mg/kg, iv; assay type: ADME, organism-based; design: dose 5 mg/kg, route intravenous
# [3] = Drug recovery in permanently bile-duct cannulated rat bile supplimented with artificial bile at 5 mg/kg, iv after 48 hrs by HPLC-MS/MS analysis; assay type: ADME, organism-based; design: dose 5 mg/kg, route intravenous; conditions: read-out: Drug uptake
# [4] = Drug recovery in permanently bile-duct cannulated rat feces supplimented with artificial bile at 20 mg/kg, po after 48 hrs by HPLC-MS/MS analysis; assay type: ADME, organism-based; design: dose 20 mg/kg, route oral; conditions: faeces, read-out: Drug uptake
# [5] = Drug recovery in permanently bile-duct cannulated rat urine supplimented with artificial bile at 20 mg/kg, po after 48 hrs by HPLC-MS/MS analysis; assay type: ADME, organism-based; design: dose 20 mg/kg, route oral; conditions: read-out: Drug uptake
# [6] = (§2) Oral bioavailability in rat at 30 mg/kg; assay type: ADME, organism-based; conditions: in vivo
# [7] = Drug recovery in permanently bile-duct cannulated rat bile supplimented with artificial bile at 20 mg/kg, po after 48 hrs by HPLC-MS/MS analysis; assay type: ADME, organism-based; design: dose 20 mg/kg, route oral; conditions: read-out: Drug uptake
# [8] = Drug recovery in permanently bile-duct cannulated rat supplimented with artificial bile at 20 mg/kg, po after 48 hrs by HPLC-MS/MS analysis; assay type: ADME, organism-based; design: dose 20 mg/kg, route oral; conditions: in vivo, read-out: Drug uptake
# rat Mdr1a = test: Apparent permeability across pig LLC-PK1 cells transfected with rat Mdr1a; assay type: ADME, cell-based, Sus scrofa
# [9] = Drug recovery in permanently bile-duct cannulated rat feces supplimented with artificial bile at 5 mg/kg, iv after 48 hrs by HPLC-MS/MS analysis; assay type: ADME, organism-based; design: dose 5 mg/kg, route intravenous; conditions: faeces, read-out: Drug uptake
# [10] = Apparent Passive permeability across pig LLC-PK1 cells; assay type: ADME, cell-based, Sus scrofa
# [11] = Plasma clearance in dog at 3 mg/kg, po and 1 mg/kg, iv; assay type: ADME, organism-based, Canis lupus familiaris
# [12] = Drug recovery in permanently bile-duct cannulated rat urine supplimented with artificial bile at 5 mg/kg, iv after 48 hrs by HPLC-MS/MS analysis; assay type: ADME, organism-based; design: dose 5 mg/kg, route intravenous; conditions: read-out: Drug uptake
# [13] = as §2; assay type: ADME, organism-based; conditions: in vivo; remark: listed apart in the source
# [14] = Lipophilicity, Log D of the compound at pH 7 by RP-HPLC analysis; assay type: physicochemical; conditions: buffer
# [15] = Drug recovery in permanently bile-duct cannulated rat supplimented with artificial bile at 5 mg/kg, iv after 48 hrs by HPLC-MS/MS analysis; assay type: ADME, organism-based; design: dose 5 mg/kg, route intravenous; conditions: in vivo, read-out: Drug uptake
# [16] = Oral bioavailability in dog at 3 mg/kg; assay type: ADME, organism-based, Canis lupus familiaris; conditions: in vivo
# [17] = Plasma clearance in rat at 0.5 mg/kg, iv; assay type: ADME, organism-based; design: dose 0.5 mg/kg, route intravenous
# [18] = Plasma clearance in rat at 30 mg/kg, po and 5 mg/kg, iv; assay type: ADME, organism-based
# [19] = AUC (0 to 24 hrs) in rat at 3 mg/kg, po pre-dosed with 50 mg/kg, po of Pgp and Bcrp inhibitor elacridar 15 mins before drug challenge; assay type: ADME, organism-based; design: dose 3 mg/kg, time < 24 hr, route oral; conditions: plasma
# [20] = Oral bioavailability in rat at 3 mg/kg pre-dosed with 50 mg/kg, po of Pgp and Bcrp inhibitor elacridar 15 mins before drug challenge; assay type: ADME, organism-based; conditions: in vivo
# [21] = Oral bioavailability in rat at 10 mg/kg; assay type: ADME, organism-based; conditions: in vivo
# [22] = as §1; assay type: ADME, organism-based; conditions: in vivo; remark: listed apart in the source
# LLC-PK1 = test: Ratio of permeability from basolateral to apical side to apical to basolateral side of pig LLC-PK1 cells transfected with rat Mdr1a; assay type: ADME, cell-based, Sus scrofa
# [23] = Oral bioavailability in rat at 0.3 mg/kg; assay type: ADME, organism-based; conditions: in vivo
# [24] = Oral bioavailability in rat at 0.3 mg/kg pre-dosed with 50 mg/kg, po of Pgp and Bcrp inhibitor elacridar 15 mins before drug challenge; assay type: ADME, organism-based; conditions: in vivo
# [25] = Blood clearance in MDR1a-deficient FVB mouse at 30 mg/kg, po and 5 mg/kg, iv; assay type: ADME, organism-based; conditions: whole blood
# [26] = Drug uptake in FVB mouse expressing wild type MDR1a brain at 30 mg/kg, po after 24 hrs; assay type: ADME, organism-based; design: dose 30 mg/kg, route oral; conditions: read-out: Drug uptake
# [27] = AUC (0 to 24 hrs) in FVB mouse expressing wild type MDR1a at 30 mg/kg, po; assay type: ADME, organism-based; design: time < 24 hr, dose 30 mg/kg, route oral; conditions: plasma
# [28] = Drug uptake in MDR1a-deficient FVB mouse brain at 5 mg/kg, iv after 24 hrs; assay type: ADME, organism-based; design: dose 5 mg/kg, route intravenous; conditions: read-out: Drug uptake
# Mus musculus [29] = test: Ratio of oral bioavailability in MDR1a-deficient FVB mouse to oral bioavailability in FVB mouse expressing wild type MDR1a at 30 mg/kg; assay type: ADME, organism-based; conditions: in vivo
# Mus musculus [30] = test: Volume of distribution at steady state in MDR1a-deficient FVB mouse at 30 mg/kg, po and 5 mg/kg, iv; assay type: ADME, organism-based; conditions: in vivo
# [31] = Oral bioavailability in FVB mouse expressing wild type MDR1a at 30 mg/kg; assay type: ADME, organism-based; conditions: in vivo
# Mus musculus [32] = test: Ratio of volume of distribution at steady state in MDR1a-deficient FVB mouse to volume of distribution at steady state in FVB mouse expressing wild type MDR1a at 30 mg/kg, po and 5 mg/kg, iv; assay type: ADME, organism-based; conditions: in vivo
# [33] = Oral bioavailability in MDR1a-deficient FVB mouse at 30 mg/kg; assay type: ADME, organism-based; conditions: in vivo
# Mus musculus [34] = test: Ratio of blood clearance in MDR1a-deficient FVB mouse to blood clearance in FVB mouse expressing wild type MDR1a at 30 mg/kg, po and 5 mg/kg, iv; assay type: ADME, organism-based; conditions: in vivo
# Brain [35] = test: Ratio of drug uptake in MDR1a-deficient FVB mouse brain to drug uptake in FVB mouse expressing wild type MDR1a brain at 5 mg/kg, iv after 24 hrs; assay type: ADME, organism-based; design: dose 5 mg/kg, route intravenous; conditions: in vivo
# Brain [36] = test: Ratio of drug uptake in MDR1a-deficient FVB mouse brain to drug uptake in FVB mouse expressing wild type MDR1a brain at 30 mg/kg, po after 24 hrs; assay type: ADME, organism-based; design: dose 30 mg/kg, route oral; conditions: in vivo
# Mus musculus [37] = test: Ratio of AUC (0 to 24 hrs) in MDR1a-deficient FVB mouse to AUC (0 to 24 hrs) in FVB mouse expressing wild type MDR1a at 30 mg/kg, po; assay type: ADME, organism-based; design: dose 30 mg/kg, route oral; conditions: in vivo
# [38] = Drug uptake in MDR1a-deficient FVB mouse brain at 30 mg/kg, po after 24 hrs; assay type: ADME, organism-based; design: dose 30 mg/kg, route oral; conditions: read-out: Drug uptake
# Mus musculus [39] = test: Volume of distribution at steady state in FVB mouse expressing wild type MDR1a at 30 mg/kg, po and 5 mg/kg, iv; assay type: ADME, organism-based; conditions: in vivo
# [40] = Blood clearance in FVB mouse expressing wild type MDR1a at 30 mg/kg, po and 5 mg/kg, iv; assay type: ADME, organism-based; conditions: whole blood
# [41] = AUC (0 to 24 hrs) in MDR1a-deficient FVB mouse at 30 mg/kg, po; assay type: ADME, organism-based; design: time < 24 hr, dose 30 mg/kg, route oral; conditions: plasma
# [42] = Drug uptake in FVB mouse expressing wild type MDR1a brain at 5 mg/kg, iv after 24 hrs; assay type: ADME, organism-based; design: dose 5 mg/kg, route intravenous; conditions: read-out: Drug uptake
# [43] = Cmax in rat plasma at 3 mg/kg, po; assay type: ADME, organism-based; design: dose 3 mg/kg, route oral
structure (smiles),measurement,setting,value
COCCCc1cc(CN(C(=O)[C@H]2CNCC[C@@H]2c2ccn(C)c(=O)c2)C2CC2)cc(OCCOC)c1.Cl,bioavailability,[1],0.5%
same,clearance,[2],31 mL/min/kg
same,dose excreted at 48 h,[3],25%
same,dose excreted at 48 h,[4],73%
same,dose excreted at 48 h,[5],2%
same,bioavailability,[6],3%
same,dose excreted at 48 h,[7],0.1%
same,dose excreted at 48 h,[8],75%
same,Papp,rat Mdr1a,< 3 ×10⁻⁶ cm/s
same,dose excreted at 48 h,[9],10%
same,Papp,[10],2 ×10⁻⁶ cm/s
same,clearance,[11],9.2 mL/min/kg
same,dose excreted at 48 h,[12],10%
same,bioavailability,[13],3%
same,logD,[14],0.9
same,dose excreted at 48 h,[15],45%
same,bioavailability,[16],1%
same,clearance,[17],43 mL/min/kg
same,clearance,[18],31 mL/min/kg
COCCCc1cc(CN(C(=O)[C@H]2CNCC[C@@H]2c2ccc(OCCOc3c(Cl)cc(C)cc3Cl)cc2)C2CC2)cc(OCCOC)c1.Cl,bioavailability,[6],27%
same,clearance,[11],26 mL/min/kg
same,bioavailability,[16],44%
same,clearance,[18],11 mL/min/kg
COCCCc1cc(Cl)c(Cl)c(CN(C(=O)[C@H]2CNCC[C@@H]2c2ccn(C)c(=O)c2)C2CC2)c1,bioavailability,[1],2%
same,clearance,[2],67 mL/min/kg
same,AUC(0-t) at 24 h,[19],0.033 µM·h
same,Papp,rat Mdr1a,3 ×10⁻⁶ cm/s
same,bioavailability,[20],20%
same,bioavailability,[13],24%
same,bioavailability,[21],21%
same,clearance,[17],57 mL/min/kg
same,bioavailability,[22],2%
COCCOc1cc(CCOC)cc(CN(C(=O)[C@H]2CNCC[C@]2(O)c2ccc(F)c(F)c2)C2CC2)c1,bioavailability,[1],29%
same,Papp,rat Mdr1a,22 ×10⁻⁶ cm/s
same,bioavailability,[20],24%
same,Papp,[10],22 ×10⁻⁶ cm/s
same,Ratio,LLC-PK1,19
same,bioavailability,[23],17%
same,logD,[14],2.6
same,bioavailability,[24],14%
same,bioavailability,[22],29%
COCCc1ccc(Cl)c(CN(C(=O)[C@H]2CNCC[C@]2(O)c2ccc(F)c(F)c2)C2CC2)c1,bioavailability,[1],16%
same,Papp,[10],11 ×10⁻⁶ cm/s
same,logD,[14],3.1
COCCCc1cc(CN(C(=O)[C@H]2CNCC[C@@H]2c2ccn(C)c(=O)c2)C2CC2)cc(Br)c1C,bioavailability,[1],6%
same,clearance,[25],72 mL/min/kg
same,clearance,[2],75 mL/min/kg
same,AUC(0-t) at 24 h,[19],0.044 µM·h
same,concentration at 24 h,[26],8 nM
same,AUC(0-t) at 24 h,[27],0.8 µM·h
same,concentration at 24 h,[28],239 nM
same,fold change (FC),Mus musculus [29],4
same,Vdss,Mus musculus [30],4.7 L/kg
same,bioavailability,[31],7%
same,Papp,rat Mdr1a,2 ×10⁻⁶ cm/s
same,fold change (FC),Mus musculus [32],1.3
same,bioavailability,[20],31%
same,bioavailability,[33],29%
same,fold change (FC),Mus musculus [34],0.9
same,fold change (FC),Brain [35],32
same,fold change (FC),Brain [36],63
same,fold change (FC),Mus musculus [37],5
same,bioavailability,[13],17%
same,bioavailability,[21],7%
same,concentration at 24 h,[38],504 nM
same,Vdss,Mus musculus [39],3.7 L/kg
same,clearance,[40],82 mL/min/kg
same,AUC(0-t) at 24 h,[41],4 µM·h
same,clearance,[17],125 mL/min/kg
same,concentration at 24 h,[42],7.3 nM
same,bioavailability,[22],3%
COc1cc2c(cc1OC)CN(CCc1ccc(NC(=O)c3cccc4c(=O)c5cccc(OC)c5[nH]c34)cc1)CC2 [ELACRIDAR],Cmax,[43],200 nM
COCCc1ccc(Cl)c(CN(C(=O)[C@H]2CNCC[C@@H]2c2ccn(C)c(=O)c2)C2CC2)c1,bioavailability,[1],1%
same,Papp,[10],1 ×10⁻⁶ cm/s
same,logD,[14],1
